A short description of data set [1]: Solubility of compound A in dissolution test fluids and water. It is filed as physicochemical.
Data set [2] has as its target T1, Janus kinase 3 (Homo sapiens, UniProt P52333).
T1 sequence (P52333 1-1124): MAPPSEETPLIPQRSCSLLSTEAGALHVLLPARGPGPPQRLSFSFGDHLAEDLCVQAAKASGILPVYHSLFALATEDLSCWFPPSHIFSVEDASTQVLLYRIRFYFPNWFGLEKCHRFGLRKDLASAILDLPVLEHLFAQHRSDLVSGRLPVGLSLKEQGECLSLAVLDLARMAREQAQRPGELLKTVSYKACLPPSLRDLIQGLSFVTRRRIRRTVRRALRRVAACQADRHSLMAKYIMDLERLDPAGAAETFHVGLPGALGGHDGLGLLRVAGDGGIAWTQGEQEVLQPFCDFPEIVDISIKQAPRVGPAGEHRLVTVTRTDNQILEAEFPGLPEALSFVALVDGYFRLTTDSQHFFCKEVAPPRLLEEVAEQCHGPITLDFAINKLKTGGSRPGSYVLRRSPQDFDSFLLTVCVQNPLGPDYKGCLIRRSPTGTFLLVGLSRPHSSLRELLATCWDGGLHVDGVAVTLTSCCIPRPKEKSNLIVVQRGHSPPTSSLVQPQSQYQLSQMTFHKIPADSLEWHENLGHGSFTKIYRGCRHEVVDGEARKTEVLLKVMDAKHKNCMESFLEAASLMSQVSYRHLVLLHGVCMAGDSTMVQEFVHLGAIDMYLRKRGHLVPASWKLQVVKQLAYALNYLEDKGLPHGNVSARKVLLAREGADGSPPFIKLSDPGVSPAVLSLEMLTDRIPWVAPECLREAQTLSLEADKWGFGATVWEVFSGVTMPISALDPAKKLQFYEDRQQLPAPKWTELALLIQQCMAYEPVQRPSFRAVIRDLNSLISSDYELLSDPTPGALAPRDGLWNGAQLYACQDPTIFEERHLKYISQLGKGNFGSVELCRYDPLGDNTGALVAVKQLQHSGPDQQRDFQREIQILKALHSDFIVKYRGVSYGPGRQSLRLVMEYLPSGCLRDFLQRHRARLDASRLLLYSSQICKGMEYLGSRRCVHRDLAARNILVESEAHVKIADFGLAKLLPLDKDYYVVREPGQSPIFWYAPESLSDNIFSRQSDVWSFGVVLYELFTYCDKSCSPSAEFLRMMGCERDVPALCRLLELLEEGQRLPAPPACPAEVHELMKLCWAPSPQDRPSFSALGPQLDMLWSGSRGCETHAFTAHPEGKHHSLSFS
The following applies: reported in Patent literature 1; cited from earlier work.

Molecules are shown by their SMILES. ≈ marks a conversion by molar mass, not a printed value. Read-outs that look alike come from different tables or passages of the source.

As usually defined, the solubility is the dissolved amount per volume that the medium holds. Turning to `NC(=O)c1cnc2[nH]ccc2c1N[C@@H]1[C@@H]2CC3C[C@H]1C[C@@](O)(C3)C2` [compound A, 4-{[(1R,2s,3S,5s,7s)-5-hydroxy-2-adamantyl]amino}-1H-pyrrolo[2,3-b]pyridine-5-carboxamide], the “difference in solubility between acidic and neutral pH range” value in data set [1] (JP1 pH 1.2 vs pH 6.8) is given as “about 1,000 times”. The solubility was around 8 µg/mL (≈ 0.0245 mM) in data set [1] (Japanese Pharmacopoeia, aqueous buffer, 2nd fluid for dissolution test JP2 (pH 6.8), read-out: solubility at a neutral pH range); around 8600 µg/mL (≈ 26.3 mM) in data set [1] (Japanese Pharmacopoeia, simulated gastric fluid, 1st fluid for dissolution test JP1 (pH 1.2), read-out: solubility at an acidic pH range); around 11 µg/mL (≈ 0.0337 mM) in data set [1] (aqueous buffer, pH 6.8 phosphate buffer, USP, read-out: solubility at a neutral pH range); around 12500 µg/mL (≈ 38.3 mM) in data set [1] (water, read-out: solubility in water). Besides, in data set [2], the JAK3 inhibitory activity entry was “superior”.
